For this experiment, the system named is HIV in the HTLV-1 transformed cell line MT-4. Briefly: organism not typed. The class given is cell-based. The note with it: MT4, 96 h, MT-4 cells; luciferase/cell titer glo readout after 96 hours; 10 point dose response. Background: ATP-based viability assays read luminescence as a measure of living cells.

Structures are written as SMILES. pIC50: −log10 of the molar value.

The term pIC50 denotes −log10 of the IC50, conventionally taken in molar units.

In turn, `Cc1ccc(-c2c(C)c3c(c(C)c2[C@H](OC(C)(C)C)C(=O)O)CN(C(=O)c2cccc(B(O)O)c2)C3)cc1` [Example 257, (S)-2-(2-(3-boronobenzoyl)-4,7-dimethyl-6-(p-tolyl)isoindolin-5-yl)-2-(tert-butoxy)acetic acid] showed a pIC50 of 6.87.
The figure for `Cc1ccc(-c2c(C)c3c(c(C)c2[C@H](OC(C)(C)C)C(=O)O)CN(C(=O)N2CCOC[C@@H]2C)C3)cc1` [Example 91, (S)-2-(tert-butoxy)-2-(4,7-dimethyl-2-((S)-3-methylmorpholine-4-carbonyl)-6-(p-tolyl)isoindolin-5-yl)acetic acid] is 7.89; for `Cc1ccc(-c2c(C)c3c(c(C)c2[C@H](OC(C)(C)C)C(=O)O)CN(C(=O)c2ccc4c(c2)OCCO4)C3)cc1` [Example 255, (S)-2-(tert-butoxy)-2-(2-(2,3-dihydrobenzo[b][1,4]dioxine-6-carbonyl)-4,7-dimethyl-6-(p-tolyl)isoindolin-5-yl)acetic acid] it is 7.89.
The figure for `COc1ccc(CN2Cc3c(C)c(-c4ccc(C)cc4)c([C@H](OC(C)(C)C)C(=O)O)c(C)c3C2)cc1` [Example 19, (S)-2-(tert-butoxy)-2-(2-(4-methoxybenzyl)-4,7-dimethyl-6-(p-tolyl)isoindolin-5-yl)acetic acid] is 6.47; for `Cc1ccc(-c2c(C)c3c(c(C)c2[C@H](OC(C)(C)C)C(=O)O)CN(C(=O)c2cc(F)ccc2C)C3)cc1` [Example 121, (S)-2-(tert-butoxy)-2-(2-(5-fluoro-2-methylbenzoyl)-4,7-dimethyl-6-(p-tolyl)isoindolin-5-yl)acetic acid] it is 8.40; for `Cc1c2c(c(C)c([C@H](OC(C)(C)C)C(=O)O)c1-c1ccc3c(c1)CCCO3)CN(C(=O)N1CCC(F)(F)C1)C2` [Example 313, (S)-2-(tert-butoxy)-2-(6-(chroman-6-yl)-2-(3,3-difluoropyrrolidine-1-carbonyl)-4,7-dimethylisoindolin-5-yl)acetic acid] it is 8.40.
Compound `Cc1ccc(-c2c(C)c3c(c(C)c2[C@H](OC(C)(C)C)C(=O)O)CN(C(=O)NCCOCc2ccccc2)C3)cc1` [Example 79, (2S)-2-(2-{[2-(benzyloxy)ethyl]carbamoyl}-4,7-dimethyl-6-(4-methylphenyl)-2,3-dihydro-1H-isoindol-5-yl)-2-(tert-butoxy)acetic acid] gave a pIC50 of 6.64. Compared with the last compound, the pIC50 is 1.76 log units lower.
The figure for `Cc1c(-c2c(C)c3c(c(C)c2[C@H](OC(C)(C)C)C(=O)O)CN(C(=O)N2CCCCC2)C3)cc(F)c2c1CCCO2` (atropisomer, axis not shown; (M)) [Example 101, (2S)-2-(tert-butoxy)-2-(6-(M)-(8-fluoro-5-methylchroman-6-yl)-4,7-dimethyl-2-(piperidine-1-carbonyl)isoindolin-5-yl)acetic acid] is 8.52; for `Cc1cc(Cl)ccc1-c1c(C)c2c(c(C)c1C(OC(C)(C)C)C(=O)O)CN(C(=O)N1CCC(F)(F)C1)C2` (centres unmarked) [Example 323, 2-(tert-butoxy)-2-(6-(4-chloro-2-methylphenyl)-2-(3,3-difluoropyrrolidine-1-carbonyl)-4,7-dimethylisoindolin-5-yl)acetic acid] it is 7.89; for `COc1cncc(C(=O)N2Cc3c(C)c(-c4cc(F)c5c(c4C)CCCO5)c([C@H](OC(C)(C)C)C(=O)O)c(C)c3C2)c1` (atropisomer, axis not shown; (M)) [Example 143, (S)-2-(tert-butoxy)-2-((M)-6-(8-fluoro-5-methylchroman-6-yl)-2-(5-methoxynicotinoyl)-4,7-dimethylisoindolin-5-yl)acetic acid] it is 8.40.
The figure for `Cc1ccc(-c2c(C)c3c(c(C)c2[C@H](OC(C)(C)C)C(=O)O)CN(C(=O)N2CCCC2)C3)cc1` [Example 35, (S)-2-(tert-butoxy)-2-(4,7-dimethyl-2-(pyrrolidine-1-carbonyl)-6-(p-tolyl)isoindolin-5-yl)acetic acid] is 7.92; for `Cc1c(-c2c(C)c3c(c(C)c2[C@H](OC(C)(C)C)C(=O)O)CN(C(=O)c2cccc4c2OC(F)(F)O4)C3)cc(F)c2c1CCCO2` (atropisomer, axis not shown; (M)) [Example 162, (S)-2-(tert-butoxy)-2-((M)-2-(2,2-difluorobenzo[d][1,3]dioxole-4-carbonyl)-6-(8-fluoro-5-methylchroman-6-yl)-4,7-dimethylisoindolin-5-yl)acetic acid] it is 8.70.
For `Cc1ccc(-c2c(C)c3c(c(C)c2[C@H](OC(C)(C)C)C(=O)O)CN(C(=O)c2ccc(F)c(C)c2)C3)cc1` [Example 246, (S)-2-(tert-butoxy)-2-(2-(4-fluoro-3-methylbenzoyl)-4,7-dimethyl-6-(p-tolyl)isoindolin-5-yl)acetic acid] the value was 8.30.
As to `Cc1ccc(-c2c(C)c3c(c(C)c2[C@H](OC(C)(C)C)C(=O)O)CN(Cc2cccc4c2OCCO4)C3)cc1` [Example 125, (S)-2-(tert-butoxy)-2-(2-((2,3-dihydrobenzo[b][1,4]dioxin-5-yl)methyl)-4,7-dimethyl-6-(p-tolyl)isoindolin-5-yl)acetic acid], the pIC50 was 7.82. This pIC50 lies 0.48 log units lower than the previous one.
For `Cc1c(-c2c(C)c3c(c(C)c2[C@H](OC(C)(C)C)C(=O)O)CN(C(=O)N2CCCCC2)C3)ccc2c1CCCO2` [Example 321, (2S)-2-(tert-butoxy)-2-(4,7-dimethyl-6-(5-methylchroman-6-yl)-2-(piperidine-1-carbonyl)isoindolin-5-yl)acetic acid] the value was 8.70; for `Cc1c(-c2c(C)c3c(c(C)c2[C@H](OC(C)(C)C)C(=O)O)CN(Cc2cccc(F)c2)C3)cc(F)c2c1CCCO2` (atropisomer, axis not shown; (M)) [Example 8, (2S)(M)-2-(tert-Butoxy)-2-(-6-(8-fluoro-5-methylchroman-6-yl)-2-(3-fluorobenzyl)-4,7-dimethylisoindolin-5-yl)acetic acid], 8.30.
For `Cc1c2c(c(C)c([C@H](OC(C)(C)C)C(=O)O)c1-c1ccc3c(c1)CCCO3)CN(C(=O)N1CCCCC1)C2` [Example 317, (S)-2-(tert-butoxy)-2-(6-(chroman-6-yl)-4,7-dimethyl-2-(piperidine-1-carbonyl)isoindolin-5-yl)acetic acid] the value was 8.52; for `Cc1ccc(-c2c(C)c3c(c(C)c2[C@H](OC(C)(C)C)C(=O)O)CN(C(=O)C2CCCCC2)C3)cc1` [Example 107, (S)-2-(tert-butoxy)-2-(2-(cyclohexanecarbonyl)-4,7-dimethyl-6-(p-tolyl)isoindolin-5-yl)acetic acid], 8.15.
For `Cc1ccc(-c2c(C)c3c(c(C)c2[C@H](OC(C)(C)C)C(=O)O)CN(C(=O)c2ccc4c(c2)B(O)OC4)C3)cc1` [Example 256, (S)-2-(tert-butoxy)-2-(2-(1-hydroxy-1,3-dihydrobenzo[c][1,2]oxaborole-6-carbonyl)-4,7-dimethyl-6-(p-tolyl)isoindolin-5-yl)acetic acid] the value was 6.13; for `Cc1c(-c2c(C)c3c(c(C)c2[C@H](OC(C)(C)C)C(=O)O)CN(C(=O)c2cccc(F)c2)C3)ccc2c1CCCO2` [Example 305, (2S)-2-(tert-butoxy)-2-(2-(3-fluorobenzoyl)-4,7-dimethyl-6-(5-methylchroman-6-yl)isoindolin-5-yl)acetic acid], 8.70; for `COc1ccccc1C(=O)N1Cc2c(C)c(-c3cc(F)c4c(c3C)CCCO4)c([C@H](OC(C)(C)C)C(=O)O)c(C)c2C1` (atropisomer, axis not shown; (M)) [Example 199, (S)-2-(tert-butoxy)-2-((M)-6-(8-fluoro-5-methylchroman-6-yl)-2-(2-methoxybenzoyl)-4,7-dimethylisoindolin-5-yl)acetic acid], 8.40.
`Cc1ccc(-c2c(C)c3c(c(C)c2[C@H](OC(C)(C)C)C(=O)O)CN(C(=O)c2cccc4c2OCC4)C3)cc1` [Example 164, (S)-2-(tert-butoxy)-2-(2-(2,3-dihydrobenzofuran-7-carbonyl)-4,7-dimethyl-6-(p-tolyl)isoindolin-5-yl)acetic acid] showed a pIC50 of 8.40.
In the case of `Cc1ccc(-c2c(C)c3c(c(C)c2[C@H](OC(C)(C)C)C(=O)O)CN(C(=O)c2cn(C)cn2)C3)cc1` [Example 237, (S)-2-(tert-butoxy)-2-(4,7-dimethyl-2-(1-methyl-1H-imidazole-4-carbonyl)-6-(p-tolyl)isoindolin-5-yl)acetic acid], the pIC50 was 7.17.
The figure for `Cc1ccc(-c2c(C)c3c(c(C)c2[C@H](OC(C)(C)C)C(=O)O)CN(Cc2cccc4ccccc24)C3)cc1` [Example 13, (S)-2-(tert-Butoxy)-2-(4,7-dimethyl-2-(naphthalen-1-ylmethyl)-6-(p-tolyl)isoindolin-5-yl)acetic acid] is 7.36; for `Cc1ccc(-c2c(C)c3c(c(C)c2[C@H](OC(C)(C)C)C(=O)O)CN(C(=O)C2CCCC2)C3)cc1` [Example 112, (S)-2-(tert-butoxy)-2-(2-(cyclopentanecarbonyl)-4,7-dimethyl-6-(p-tolyl)isoindolin-5-yl)acetic acid] it is 7.54.
The figure for `Cc1ccc(-c2c(C)c3c(c(C)c2[C@H](OC(C)(C)C)C(=O)O)CN(C(=O)c2ccccc2)C3)cc1` [Example 229, (S)-2-(2-benzoyl-4,7-dimethyl-6-(p-tolyl)isoindolin-5-yl)-2-(tert-butoxy)acetic acid] is 8.30; for `COc1cc(C(=O)N2Cc3c(C)c(-c4ccc(C)cc4)c([C@H](OC(C)(C)C)C(=O)O)c(C)c3C2)ccc1C` [Example 222, (S)-2-(tert-butoxy)-2-(2-(3-methoxy-4-methylbenzoyl)-4,7-dimethyl-6-(p-tolyl)isoindolin-5-yl)acetic acid] it is 8.40.
`Cc1ccc(-c2c(C)c3c(c(C)c2C(OC(C)(C)C)C(=O)O)CN(Cc2ccc(F)cc2)C3)cc1` (centres unmarked) [Example 1, 2-(tert-Butoxy)-2-(2-(4-fluorobenzyl)-4,7-dimethyl-6-(p-tolyl)isoindolin-5-yl)acetic acid] showed a pIC50 of 7.46.
For `Cc1ccc(-c2c(C)c3c(c(C)c2C(OC(C)(C)C)C(=O)O)CN(Cc2ccccc2)C3)cc1` (centres unmarked) [Example 9, 2-(2-Benzyl-4,7-dimethyl-6-(p-tolyl)isoindolin-5-yl)-2-(tert-butoxy)acetic acid] the value was 7.01.

The values are drawn from patent publication US10112899B2 (ViiV HEALTHCARE UK LIMITED, priority 2014, dated 2018).
